From patent US20260158094A1, “COMPOSITION FOR PREVENTING, IMPROVING OR TREATING SKELETAL MUSCLE ATROPHY OR SARCOPENIA COMPRISING EXTRACT OR ISOLATED COMPOUND FROM STELLARIA DICHOTOMA AS ACTIVE INGREDIENT” (INDUSTRY-UNIVERSITY COOPERATION FOUNDATION HANYANG …, priority 2023, published 2026)
Values joined by “and” are separate entries in the source; they are usually repeats but may differ in a detail not shown here. Equal entries are not always repeated. Marks after values point to notes of the source that are not given here.

Key:
[1] = system: C2C12 myotubes; test: Fusion index of MHC-positive multinucleated C2C12 myotubes after dexamethasone (MHC immunofluorescence); assay type: cell-based, mouse
Experimental: The experiment was conducted similarly to Example 3-2. However, Dichotomine B was administered at concentrations of 10 μM and 30 μM.
After completion of treatment, the culture media from each group was removed, and cells were washed twice with phosphate-buffered saline (PBS), fixed with 4% paraformaldehyde for 15 minutes, and washed three times with PBS. The cells were then permeabilized with 0.1% Triton X-100 for 10 minutes, washed twice with PBS, and blocked with 3% horse serum solution for 2 hours. Mouse anti-MHC antibody was diluted 1:100 in 3% BSA and incubated overnight at 4° C. The cells were washed three times with 0.1% PBST. Goat anti-mouse IgG-FITC secondary antibody (Thermo Fisher Scientific) was diluted 1:500 in 3% BSA and reacted for 1 hour at 37° C., followed by three washes with 0.1% PBST. Next, cells were stained with 1 μg/mL Hoechst 33342 solution for 10 minutes at room temperature. Cell imaging was performed using the JuLi™ system. MHC immunofluorescence was visualized in green, and cell nuclei stained with Hoechst 33342 were visualized in blue.
From the results of Section 7-3, randomly selected multinucleated myotubes were analyzed to calculate the fusion index. The number of multinucleated myotubes (i.e., myotubes containing multiple nuclei) was counted and normalized to the total number of cells. The relative number of MHC-positive multinucleated myotubes was determined for each treatment group (see Table 4 and FIG. 13).

[2] = system: C2C12 myotubes; test: Dexamethasone-induced atrophy of differentiated C2C12 myotubes, myotube diameter (ImageJ); assay type: cell-based, mouse; conditions: for prevention of dexamethasone-induced reduction in diameter of C2C12 myotubes (in words): dexamethasone-induced atrophy
Experimental: C2C12 mouse myoblasts used in this experiment were obtained from the American Type Culture Collection (ATCC). The cells were cultured in Dulbecco's Modified Eagle's Medium (DMEM) containing 10% fetal bovine serum (FBS), 100 U/mL penicillin, and 100 μg/mL streptomycin under conditions of 5% CO2 at 37° C. The C2C12 cells were seeded into 12-well plates and allowed to proliferate until reaching a confluence of 85-90%.
For induction of differentiation, the culture medium was replaced with a differentiation medium composed of DMEM supplemented with 2% horse serum, 100 U/mL penicillin, and 100 μg/mL streptomycin. The medium was replaced every two days, and differentiation was carried out for a total of 6 days.
The diameter of the C2C12 myotubes was measured using the ImageJ cell processing software. For each experimental group, the diameters of 50 individual myotubes were measured to calculate the average and standard error.

[3] = system: MHC, Atrogin-1 and MuRF-1 in C2C12 myotubes; test: Western blotting of dexamethasone-treated C2C12 myotubes; assay type: cell-based, mouse; conditions: dexamethasone model, western blot
Experimental: C2C12 cells were seeded in a 6-well plate at a density of 1×10^5 cells per well. After differentiation was complete, each group was treated with dexamethasone and the test sample according to the respective experimental condition.
Cells were lysed using a lysis buffer containing LIPA buffer, protease inhibitors, and phosphatase inhibitors. A volume of 200 μL of the prepared lysis buffer was added per well, and the cells were collected using a cell scraper. The lysates were centrifuged at 13,000 rpm for 20 minutes, and the supernatants were collected. Protein concentrations were measured using the BCA protein assay method. Equal amounts of protein were separated using 8% SDS-PAGE.
The separated proteins were transferred to a nitrocellulose membrane, followed by blocking with 3% BSA buffer. The membranes were incubated with various primary antibodies (e.g., MHC, FoxO3a, MuRF1, GAPDH), followed by sequential washing, incubation with secondary antibodies, and further washing steps.
Protein expression was detected using enhanced chemiluminescence (ECL), and images were acquired using the ChemiDoc imaging system. Quantification of each protein expression level was performed using ImageJ software.

[4] = Body weight of mice with 48-hour fasting; assay type: in vivo, C57BL/6 male mice; conditions: 10 mg/kg; for Body weight (g), End of Sample Administration: administered twice
Experimental: (§1) C57BL/6 male mice (6 weeks old) were obtained from Koatech (Pyeongtaek, Gyeonggi-do, Korea) and acclimated for one week in the Hanyang University ERICA Laboratory Animal Center (Animal Facility Registration No. 445) before use in the experiments. The lighting cycle was set to 12 hours (07:00 to 19:00), and food and water were provided ad libitum. All animal experiments were conducted in compliance with the guidelines and regulations of the Institutional Animal Care and Use Committee (IACUC) of Hanyang University.
(§2) After acquisition of the experimental animals and a 7-day acclimation period, the experiment was conducted.
Solid feed for laboratory animals (Woojung Bio, Hwaseong, Gyeonggi-do, Korea) was provided, and all treatments were administered during a fixed time window (10:00 AM to 12:00 PM).
(§3) Body weight was measured three times in total. For the fasting group, each animal was housed individually during the fasting period. The test sample was administered twice: once at the start of the fasting period, and again 24 hours later. Experimental results are presented as means±standard deviation (SD). Statistical significance among groups was analyzed using ANOVA t-tests via the StatView program.
In the non-fasting group, body weight changes were within the normal range. However, in the fasting group (F group), a statistically significant reduction in body weight was observed after 48 hours of fasting (see Table 7).

[5] = system: C57BL/6 male mice; test: Muscle tissue weights (TA, EDL, GA, SOL) of mice after 48-hour fasting; assay type: in vivo; conditions: 10 mg/kg
Experimental: as §1, §2, §3
To evaluate muscle loss, the weights of dissected muscle tissues-including the tibialis anterior (TA), extensor digitorum longus (EDL), gastrocnemius (GA), and soleus (SOL)-were measured post-mortem and summarized in Table 9.

[6] = system: MHC, FOXO3a, Atrogin-1 and MuRF-1 in C2C12 myotubes; test: Western blotting in the C2C12 starvation model; assay type: cell-based, mouse; conditions: western blot
Experimental: (§4) Culturing differentiated C2C12 myotubes in serum-free/low-glucose medium inhibits muscle protein synthesis and induces muscle atrophy through increased protein degradation. In this example, C2C12 myotubes differentiated as in Section 8-1 were cultured in serum-free/low-glucose medium to induce atrophy, and the cells were then treated with Dichotomine B under the following specific experimental conditions: • 1. Control group: Differentiated C2C12 myotubes were maintained in normal differentiation medium for 48 hours. • 2. Negative control group: Differentiated C2C12 myotubes were cultured in serum-free/low-glucose medium for 48 hours. • 3 Dichotomine B treatment groups: In the same condition as the negative control group, Dichotomine B was additionally administered at concentrations of 1 μM or 10 μM for 48 hours.
Western blotting was performed in the same manner as described in Example 7-5 to assess the expression levels of related proteins.

[7] = system: C2C12 myotubes; test: In vitro starvation model (serum-free/low-glucose medium), C2C12 myotube diameter and MHC-stained area; assay type: cell-based, mouse
Experimental: as §4
This procedure was conducted in the same manner as described in Section 7-3.
The diameter and staining area of the myotubes were measured as described in Example 3-3. The mean and standard errors were calculated, and the results were organized into Table 6. Each experiment was performed in triplicate.

[8] = system: C57BL/6 male mice; test: Grip strength of mice after 48-hour fasting (grip strength meter); assay type: in vivo; conditions: fed mice, 10 mg/kg
Experimental: as §1, §2, §3
After the completion of the fasting period, grip strength was measured using a grip strength meter.

[9] = fed mice (Feed + Dichotomine B)
[10] = starvation (serum free/low glucose medium) 48 hours + compound 1 μM
[11] = starvation (serum free/low glucose medium) 48 hours + compound 10 μM
[12] = Dex 10 μM + compound 30 μM, 24 hours

Compound: C[C@@H]1C[C@H]2[C@@H]3CCC4=CC(=O)C=C[C@]4(C)[C@@]3(F)[C@@H](O)C[C@]2(C)[C@@]1(O)C(=O)CO [Dex, Dexamethasone, reference compound]
- fusion index of MHC-positive multinucleated C2C12 myotubes (% of control) ([1]; Dex 10 μM alone): 80.0^a % of control
- C2C12 myotube diameter (% of control) ([2]; dexamethasone 10 μM alone, 24 hours (negative control group)): 79.9^a % of control
- decrease of C2C12 myotube diameter compared to the control group ([2]; dexamethasone 10 μM vs differentiation medium alone): 21.1%

Compound: O=C(O)c1cc2c([nH]c3ccccc32)c([C@@H](O)CO)n1 [Dichotomine B]
- MHC expression [3]: increased in a concentration-dependent manner
- expression of Atrogin-1 and MuRF-1 [3]: reduced
- Body weight (g), Start of Sample Administration [4, 9]: 21.080 ± 0.370 g
- Body weight (g), End of Sample Administration [4, 9]: 21.400 ± 0.339 g
- effect on body weight (in words) ([4]; mice, 48-hour fasting): no significant effect on body weight
- Body weight (g), Start of Sample Administration ([4]; starved mice (Starvation + Dichotomine B)): 22.214 ± 0.701 g
- Body weight (g), End of Sample Administration ([4]; starved mice, 48-hour fasting): 17.743 ± 0.885 g
- Extensor Digitorum Longus (EDL) weight ([5]; fed mice): 0.012 ± 0.002 g
- Gastrocnemius (GA) weight ([5]; fed mice): 0.169 ± 0.014 g
- Soleus (SOL) weight ([5]; fed mice): 0.010 ± 0.001 g
- Tibialis Anterior (TA) weight ([5]; fed mice): 0.058 ± 0.006 g
- Extensor Digitorum Longus (EDL) weight ([5]; starved mice, 48-hour fasting): 0.014 ± 0.004 g
- Gastrocnemius (GA) weight ([5]; starved mice, 48-hour fasting): 0.165 ± 0015 g
- fusion index of MHC-positive multinucleated C2C12 myotubes (% of control) ([1]; Dex 10 μM + compound 10 μM): 90.3^b % of control
- fusion index of MHC-positive multinucleated C2C12 myotubes (% of control) ([1]; Dex 10 μM + compound 30 μM): 92.3^b % of control
- fusion index of multinucleated C2C12 myotubes (in words) ([1]; dexamethasone model): significantly improved the fusion index
- effect on starvation-induced changes of MHC, FOXO3a, Atrogin-1 and MuRF-1 expression [6]: effectively reversed these effects
- C2C12 myotube diameter (% of control) [7, 10]: 98.6 + 9.3^b % of control
- MHC positive area (% of control) [7, 10]: 93.6 + 7.8^b % of control
- C2C12 myotube diameter (% of control) [7, 11]: 100.4 ± 10.8^b % of control
- MHC positive area (% of control) [7, 11]: 97.1 ± 8.4^b % of control
- Grip Strength (gf) [8]: 190 ± 11.7 gf
- C2C12 myotube diameter (% of control) ([2]; Dex 10 μM + compound 10 μM, 24 hours): 97.9^b % of control
- C2C12 myotube diameter (% of control) [2, 12]: 98.2^b % of control and 100.6^b % of control
- prevention of dexamethasone-induced reduction in diameter of C2C12 myotubes (in words) [2]: effectively prevented

Compound: C[C@H](O)c1nc(C(=O)O)cc2c1[nH]c1ccccc12 [Dichotominee A, Dichotomine A]
- C2C12 myotube diameter (% of control) [2, 12]: 87.9 % of control

Compound: O=c1cc(-c2ccc(O)cc2)oc2c([C@@H]3O[C@H](CO)[C@@H](O)[C@H](O)[C@H]3O)c(O)c([C@@H]3OC[C@H](O)[C@H](O)[C@H]3O)c(O)c12 [Isoshaftoside]
- C2C12 myotube diameter (% of control) [2, 12]: 95.7^c % of control
- prevention of dexamethasone-induced reduction in diameter of C2C12 myotubes (in words) [2]: effectively prevented

Compound: Glucodichotomine B
- C2C12 myotube diameter (% of control) [2, 12]: 102.0^b % of control
- prevention of dexamethasone-induced reduction in diameter of C2C12 myotubes (in words) [2]: effectively prevented

Compound: Shaftoside
- C2C12 myotube diameter (% of control) [2, 12]: 92.7^c % of control
- prevention of dexamethasone-induced reduction in diameter of C2C12 myotubes (in words) [2]: effectively prevented
